Results from patent publication US20170348375A1, “DISLODGEMENT AND RELEASE OF HSC FROM THE BONE MARROW STEM CELL NICHE USING ALPHA9 INTEGRIN ANTAGONISTS” (COMMONWEALTH SCIENTIFIC AND INDUSTRIAL RESEARCH ORGANISATION, priority 2014, published 2017).
Read-outs that look alike come from different tables or passages of the source.

Key:
α4β1 integrin = biological target: T1, α4β1 integrin (Homo sapiens, UniProt P05556+P13612); test: On-rate and off-rate kinetics of R-BC154 binding to α4β1 LN18 cells; settings: for kobs / kon / koff: α4β1 cells; for kobs: 50 nM, 37° C., fast phase; for kon: (kobs − koff)/50 nM
T1 construct: expressed in transfected cells; host or cells: human glioblastoma LN18 (ATCC CRL-2610), retrovirally transduced
T1 sequence (P13612 34-1032): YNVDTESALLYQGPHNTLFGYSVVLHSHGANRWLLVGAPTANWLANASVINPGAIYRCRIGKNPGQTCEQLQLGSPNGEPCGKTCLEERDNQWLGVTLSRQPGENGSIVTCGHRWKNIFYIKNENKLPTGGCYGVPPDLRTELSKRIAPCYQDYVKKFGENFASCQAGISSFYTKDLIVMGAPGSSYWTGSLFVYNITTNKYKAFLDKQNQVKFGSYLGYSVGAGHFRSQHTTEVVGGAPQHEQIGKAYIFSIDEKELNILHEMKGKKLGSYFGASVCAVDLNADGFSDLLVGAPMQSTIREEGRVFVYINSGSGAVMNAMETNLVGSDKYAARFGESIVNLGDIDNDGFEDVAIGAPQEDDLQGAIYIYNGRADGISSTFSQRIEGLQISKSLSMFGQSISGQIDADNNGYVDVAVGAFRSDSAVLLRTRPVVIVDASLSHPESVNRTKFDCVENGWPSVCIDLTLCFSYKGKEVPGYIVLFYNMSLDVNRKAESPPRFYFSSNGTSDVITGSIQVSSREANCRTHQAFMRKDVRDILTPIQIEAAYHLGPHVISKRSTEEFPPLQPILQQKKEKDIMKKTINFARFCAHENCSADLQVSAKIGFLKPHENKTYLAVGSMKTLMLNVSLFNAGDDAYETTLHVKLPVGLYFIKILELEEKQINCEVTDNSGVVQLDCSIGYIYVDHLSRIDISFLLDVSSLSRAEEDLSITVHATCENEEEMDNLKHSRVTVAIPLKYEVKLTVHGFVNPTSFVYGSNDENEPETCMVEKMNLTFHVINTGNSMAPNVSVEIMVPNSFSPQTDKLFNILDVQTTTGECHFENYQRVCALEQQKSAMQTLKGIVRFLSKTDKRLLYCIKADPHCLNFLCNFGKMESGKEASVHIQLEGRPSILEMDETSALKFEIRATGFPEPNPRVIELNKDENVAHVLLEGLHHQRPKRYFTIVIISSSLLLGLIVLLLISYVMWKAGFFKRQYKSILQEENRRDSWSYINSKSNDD
T1 sequence (P05556 21-798): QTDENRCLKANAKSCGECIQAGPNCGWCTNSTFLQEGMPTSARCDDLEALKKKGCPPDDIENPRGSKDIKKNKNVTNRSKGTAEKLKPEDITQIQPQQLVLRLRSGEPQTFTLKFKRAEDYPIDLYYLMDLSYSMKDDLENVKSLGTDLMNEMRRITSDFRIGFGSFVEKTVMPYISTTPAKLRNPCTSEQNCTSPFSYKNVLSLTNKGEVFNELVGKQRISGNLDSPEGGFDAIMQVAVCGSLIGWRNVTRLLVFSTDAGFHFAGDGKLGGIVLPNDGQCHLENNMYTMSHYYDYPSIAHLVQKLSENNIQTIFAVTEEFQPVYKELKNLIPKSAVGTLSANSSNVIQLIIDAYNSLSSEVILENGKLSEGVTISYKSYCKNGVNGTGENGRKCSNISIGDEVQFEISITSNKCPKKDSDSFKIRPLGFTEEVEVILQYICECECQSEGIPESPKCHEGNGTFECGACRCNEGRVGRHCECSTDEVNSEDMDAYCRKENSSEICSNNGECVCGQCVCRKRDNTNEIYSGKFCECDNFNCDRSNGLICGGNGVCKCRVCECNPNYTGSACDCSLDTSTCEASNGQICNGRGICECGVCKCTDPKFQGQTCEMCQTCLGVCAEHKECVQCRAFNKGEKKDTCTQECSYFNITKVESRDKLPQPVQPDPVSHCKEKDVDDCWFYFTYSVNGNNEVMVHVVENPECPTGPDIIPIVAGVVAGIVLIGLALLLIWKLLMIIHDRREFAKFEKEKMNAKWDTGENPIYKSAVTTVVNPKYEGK
Experimental: Mean channel fluorescence was plotted against time and the data was fitted to either a one-phase or two-phase exponential decay function using GraphPad Prism 6. The off-rate, koff was extrapolated from the curves.
Eppendorf vials containing α4β1 or α9β1 LN18 cells (0.5×10^6 cells) in 50 μl TBS-2% FBS containing either 1 mM CaCl2—MgCl2 or 1 mM MnCl2 were pre-activated in a heating block for 20 min at 37° C. […] The cells were washed once TBS-2% FBS (with relevant cations), pelleted by centrifugation and resuspended (200 μl) in the relevant binding buffer for flow cytometric analysis. Mean channel fluorescence was plotted against time and the data was fitted to either a one-phase or two phase association function using GraphPad Prism 6. The observed on-rate, kobs was extrapolated from the curves and kon was calculated using […]

[1] = tested on: central and endosteal BM LSK and LSKSLAM cells; test: In vitro R-BC154 binding to murine bone marrow cells; type: cell-based, mouse
Experimental: For lineage analysis, cells were stained separately for T-cells using anti-CD3, B-cells using anti-B220, macrophages using anti-Mac-1 and granulocytes using anti-Gr-1. Alternatively, lineage analysis was also performed using a cocktail containing anti-CD3/B220 (PB conjugated) and anti-B220/Gr1/Mac-1 (AF647 conjugated), whereby B220^+ cells were identified as +/+ cells, CD^3+ cells are +/− and Gr1/Mac-1^+ cells are −/+ populations. For analysis of human WBC from cord blood MNCs or BM and PB from humanised NSG mice, cells were immunolabelled with a lineage cocktail containing anti-huCD3/CD14/CD15 (all AF488 conjugated), anti-CD14/CD15/CD19/CD20 (all AF647 conjugated), anti-huCD45-PB, anti-muCD45-BV510 and anti-huCD34-PECy7. A full list of conjugated antibodies used is detailed in Table 1 and 2.
Populations of endosteal and central murine bone marrow cells were isolated as previously described in J. Grassinger, et al Cytokine, 2012, 58, 218-225 and D. N. Haylock et al Stem Cells, 2007, 25, 1062-1069. Briefly, one femur, tibia and iliac bone were excised and cleaned of muscle. After removing the epi- and metaphyseal regions, bones were flushed with PBS-2% FBS to obtain central bone marrow cells. Flushed long bones and epi- and metaphyseal fragments were pooled and crushed using a mortar and pestle. Bone fragments were digested with Collagenase I (3 mg/ml) and Dispase II (4 mg/ml) at 37° C. in an orbital shaker at 750 rpm. After 5 min, bone fragments were washed once with PBS and once with PBS 2% FBS to collect the endosteal bone marrow cells. Peripheral blood was collected by retro-orbital puncture and red blood cells were lysed using NH4Cl lysis buffer for 5 min at room temperature. Isolated cell populations were washed with PBS 2% FBS and then stained for flow cytometry as described in Antibody Cocktails above.
Cells were washed with cold PBS (2% F BS) and then immunolabelled as described in “Antibody Cocktails” prior to flow cytometric analysis.

[2] = tested on: WBC, LSK and LSKSLAM in PB; test: Mobilization of HSC and progenitors into peripheral blood; type: in vivo, mouse; settings: R-BC154, s.c., 15 and 30 mins post-injection
Experimental: For mobilization experiments, all mice received subcutaneous injections at 100 μl/10 gm body weight and PB was harvested by throat bleed using EDTA coated syringes.

human integrin α4β1 = biological target: T2, human integrin α4β1 (Homo sapiens, UniProt P05556+P13612); test: Saturation binding to α4β1 over-expressing LN18 cells (flow cytometry); settings: for Kd: α4β1 LN18 cells, read-out: Kd (dissociation constant), α4β1
T2 construct: expressed in transfected cells; host or cells: human glioblastoma LN18 (ATCC CRL-2610), retrovirally transduced
T2 sequence (P13612 34-1032): as the sequence (P13612 34-1032) above
T2 sequence (P05556 21-798): as the sequence (P05556 21-798) above
Experimental: Stable LN18 cells ((ATCC number: CRL-2610) over-expressing integrin α4β1 (LN18 α4β1) or α9β1 (LN18 α9β1)) were generated by retroviral transduction using the pMSCV-hITGA4-IRES-hITGB1 and pMSCV-hITGA9-IRES-hITGB1 vectors as previously described in J Grassinger, et al Blood, 2009, 114, 49-59 and were maintained in DMEM supplemented with 2 mM […] in 10% FBS. Transduced cells were selected by two rounds of FACS using 2.5 μg ml^−1 PE-Cy5-conjugated mouse-anti-human α4 antibody (BD Bioscience) or 20 μg ml^−1 of mouse-anti-human α9β1 antibody (Millipore) in PBS-2% FBS, followed by 0.5 μg ml^−1 of PE-conjugated goat-anti-mouse IgG (BD Bio-science). Silencing of α4 expression in LN18 and LN18 α9β1 cells was performed as described above using pSM2c-shITGA4 (Open Biosystems). α4-silenced LN18 cells (control cell line; LN18 SiA4) and LN18 α9β1 (LN18 α9β1SiA4) were negatively selected for α4 expression using FACS.
The cells were incubated at 37° C. for 60 min, washed once with TBS-2% FBS, dry pelleted and resuspended in the relevant binding buffer for flow cytometric analysis. Mean channel fluorescence was plotted against concentration and fitted to a one-site saturation ligand binding curve using GraphPad Prism 6. The dissociation constant, Kd was determined from the curves.

CCN(CC)c1ccc2c(-c3ccc(S(=O)(=O)NCc4cn(C5CC(C(=O)NC(Cc6ccc(OC(=O)N7CCCC7)cc6)C(=O)O)N(S(=O)(=O)c6ccccc6)C5)nn4)cc3S(=O)(=O)[O-])c3ccc(=[N+](CC)CC)cc-3oc2c1 (centres unmarked) [R-BC154]
R-BC154 still bound after 60 min (α4β1 integrin; α4β1, Mn2+, dissociation experiment): greater than 60%
kobs (α4β1 integrin; 1 mM Ca2+/Mg2+): 5.426 min⁻¹
kon (α4β1 integrin; 1 mM Ca2+/Mg2+): 1.57e+06 M⁻¹ s⁻¹
koff (α4β1 integrin; 1 mM Ca2+/Mg2+, fast phase of two-phase dissociation curve): 0.012 s⁻¹
koff (α4β1 integrin; 1 mM Mn2+): 0.000233 s⁻¹
kobs (α4β1 integrin; 1 mM Mn2+): 1.891 min⁻¹
kon (α4β1 integrin; 1 mM Mn2+): 633000 M⁻¹ s⁻¹
binding to central versus endosteal LSK and LSKSLAM ([1]; 1 mM Ca2+/Mg2+): greater binding to central LSK and LSKSLAM
binding to HSC and progenitors on co-treatment with EDTA ([1]; 10 mM EDTA (deactivating)): completely abolished activity
binding to α4−/−/α9−/− LSK and LSKSLAM cells ([1]; BM cells of α4flox/flox α9flox/flox vav-cre mice): essentially absent
binding to lineage committed lymphoid and myeloid progeny relative to LSKSLAM and LSK ([1]; exogenous activation, central and endosteal BM): significantly lower
binding to LSK cells in the absence of activating cations and EDTA ([1]; no cations, no EDTA): binding to endosteal LSK cells was still evident but not to central LSK
number of WBC, LSK or LSKSLAM in PB [2]: not found to give significant increases
Kd (human integrin α4β1; 1 mM Ca2+/Mg2+): 0.038 µM
increase in binding affinity towards α4β1 under Mn2+ activation compared to Ca2+/Mg2+ (human integrin α4β1; 1 mM Mn2+ vs Ca2+/Mg2+): 3.1 fold
Kd (human integrin α4β1; 1 mM Mn2+): 0.0124 µM
reduction in binding affinity to α4β1 compared to compound 22 (human integrin α4β1; Ca2+/Mg2+ conditions): 1.9 fold
